Data on two compounds can be found in US20080268092A1, “Capsaicin Nutritional Supplement” (priority 2004, published 2008).

The conditions of data set [1]: cited from earlier work.
Data set [2] can be described thus: Personal experience of capsaicin use. Type of data set: in vivo. Conditions: humans.
The conditions of data set [3]: cited from earlier work. The source holds these as a separate data set.
For data set [4] the following is noted: animal models; cited from earlier work.

As for `Cn1c(=O)c2c(ncn2C)n(C)c1=O` [caffeine], the “mean half-life in plasma” value in data set [1] (healthy individuals) is “about 5 hours”. In data set [1] (in vivo), the blood-brain barrier passage result is reported as “readily crosses the blood-brain barrier”.

For the compound `COc1cc(CNC(=O)CCCC/C=C/C(C)C)ccc1O` [Capsaicin], the “effects of use on energy, exercise capacity, endurance, mood, appetite, alertness” value in data set [2] was “boosts energy, increases exercise capacity, increases endurance, improves mood, decreases appetite and increases alertness”. For the same compound, the solubility in water result in data set [3] is recorded as “only slightly soluble in water”. In data set [4], the endurance capacity entry is “increase endurance capacity” and the lipolysis entry is given as “promote lipolysis”.
